Experimental data as given in patent publication US20230085307A1, “PYRIDAZINONE COMPOUND AND HERBICIDE” (NISSAN CHEMICAL CORPORATION, priority 2019, published 2023).

Assays:
[1] = system: green foxtail; test: Test Example 5: herbicidal effect by foliage application, plastic box (Table 20, symbol G); type: in vivo, green foxtail (Setaria viridis); settings: foliage application, 3 weeks after application
In short: (§1)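 Plants were sown into sterilized diluvial soil under about 1.5 cm cover and kept in a greenhouse at 25° C. to 30° C. Fourteen days on, foliage received an even spray of the diluted emulsion. Herbicidal or crop effect was judged three weeks afterwards.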

[2] = system: rice flat sedge; test: Test Example 3: herbicidal effect by foliage application, Wagner pot (Table 18, symbol E); type: in vivo, rice flat sedge (Cyperus iria)
In short: (§2)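 Plants were sown in alluvial soil held under 0.1–0.5 cm standing water and grown 14 days in a greenhouse at 25–30 °C. An emulsifiable formulation, water-diluted to the set dose, was then sprayed onto the foliage, and effects were scored three weeks later using previously defined criteria.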

[3] = system: late watergrass; test: Test Example 2: herbicidal activity, application during weed generation under submerged conditions (Table 17, symbol A); type: in vivo, late watergrass (Echinochloa oryzicola); settings: application during weed generation, submerged conditions
In short: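 Wagner pot, alluvial soil, 4 cm flood; mixed sowing of all species; greenhouse 25° C.–30° C. Emulsifiable formulation, water-diluted to predetermined dose, applied to paddy water at 1–2 leaf stage. Effect rated at 3 wk using the earlier test's scoring criteria.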

[4] = system: windgrass; test: Test Example 4: herbicidal effect by soil treatment (Table 19, symbol L); type: in vivo, windgrass (Apera spica-venti)
In short: (§3)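 Pre-emergence style soil spray: seeds under ~1.5 cm sterilized diluvial soil received a uniform coat of emulsion diluted to the predetermined herbicide amount. Greenhouse 25–30° C; readout at week three on previously defined criteria.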

[5] = system: Japanese bulrush; test: Test Example 1: herbicidal activity, application before weed generation under submerged conditions (Table 16, symbol B); type: in vivo, Japanese bulrush (Schoenoplectus juncoides)
In short: (§4)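 Alluvial soil was flooded to 4 cm depth, weed seeds were sown mixed and 2.5-leaf rice seedlings were transplanted. On sowing day, the compound's emulsion, diluted in water to a set dose, was applied to the water surface. Plants grew at 25–30 °C and were scored 0–5 after three weeks.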

[6] = system: Chinese sprangletop; test: Test Example 3: herbicidal effect by foliage application, Wagner pot (Table 18, symbol D); type: in vivo, chinese sprangletop (Leptochloa chinensis)
In short: as §2

[7] = system: windgrass; test: Test Example 5: herbicidal effect by foliage application, plastic box (Table 20, symbol L); type: in vivo, windgrass (Apera spica-venti); settings: foliage application, 3 weeks after application
In short: as §1

[8] = system: oval-leafed pondweed; test: Test Example 1: herbicidal activity, application before weed generation under submerged conditions (Table 16, symbol C); type: in vivo, oval-leafed pondweed (Monochoria vaginalis)
In short: as §4

[9] = system: lambsquarters; test: Test Example 4: herbicidal effect by soil treatment (Table 19, symbol O); type: in vivo, lambsquarters (Chenopodium album)
In short: as §3

[10] = system: blackgrass; test: Test Example 5: herbicidal effect by foliage application, plastic box (Table 20, symbol J); type: in vivo, blackgrass (Alopecurus myosuroides); settings: foliage application, 3 weeks after application
In short: as §1

[11] = system: velvetleaf; test: Test Example 4: herbicidal effect by soil treatment (Table 19, symbol M); type: in vivo, velvetleaf (Abutilon theophrasti)
In short: as §3

[12] = system: wild oat; test: Test Example 5: herbicidal effect by foliage application, plastic box (Table 20, symbol I); type: in vivo, wild oat (Avena fatua); settings: foliage application, 3 weeks after application
In short: as §1

[13] = system: wild oat; test: Test Example 4: herbicidal effect by soil treatment (Table 19, symbol I); type: in vivo, wild oat (Avena fatua)
In short: as §3

[14] = system: barnyard grass; test: Test Example 3: herbicidal effect by foliage application, Wagner pot (Table 18, symbol H); type: in vivo, barnyard grass (Echinochloa crus-galli)
In short: as §2

[15] = system: barnyard grass; test: Test Example 4: herbicidal effect by soil treatment (Table 19, symbol H); type: in vivo, barnyard grass (Echinochloa crus-galli)
In short: as §3

[16] = system: velvetleaf; test: Test Example 5: herbicidal effect by foliage application, plastic box (Table 20, symbol M); type: in vivo, velvetleaf (Abutilon theophrasti); settings: foliage application, 3 weeks after application
In short: as §1

| SMILES | effect on green foxtail (G) ([1]; 320 g/ha) | herbicidal effect on E (rice flat sedge), rating 0-5 ([2]; 320 g/ha) | herbicidal effect rating, A: late watergrass ([3]; AAH 320 g/ha) | L: windgrass, herbicidal effect rating ([4]; AAH 320 g/ha) | Herbicidal effect on B: Japanese bulrush (grade 0-5) ([5]; 320 g/ha applied herbicide) | herbicidal effect on D (Chinese sprangletop), rating 0-5 ([6]; 320 g/ha) | effect on windgrass (L) ([7]; 320 g/ha) | Herbicidal effect on C: oval-leafed pondweed (grade 0-5) ([8]; 320 g/ha applied herbicide) | O: lambsquarters, herbicidal effect rating ([9]; AAH 320 g/ha) | effect on blackgrass (J) ([10]; 320 g/ha) | M: velvetleaf, herbicidal effect rating ([11]; AAH 320 g/ha) | effect on wild oat (I) ([12]; 320 g/ha) | I: wild oat, herbicidal effect rating ([13]; AAH 320 g/ha) | herbicidal effect on H (barnyard grass), rating 0-5 ([14]; 320 g/ha) | H: barnyard grass, herbicidal effect rating ([15]; AAH 320 g/ha) | effect on velvetleaf (M) ([16]; 320 g/ha) | also measured |
| --- | --- | --- | --- | --- | --- | --- | --- | --- | --- | --- | --- | --- | --- | --- | --- | --- | --- |
| Cc1nn(C)c(=O)c(-c2c(-c3ccc(OCCBr)cc3)sc3ccccc23)c1O [1-204] | 4 (Herbicidal rate of 70% or more and less than 90%) | 5 (Herbicidal rate of 90% or more (almost completely withered)) | 0 (Herbicidal rate of 5% or less (almost no effect)) | 0 (Herbicidal rate of 5% or less (almost no effect)) | 3 (Herbicidal rate of 40% or more and less than 70%) | 2 (Herbicidal rate of 20% or more and less than 40%) | 0 (Herbicidal rate of 5% or less (almost no effect)) | 3 (Herbicidal rate of 40% or more and less than 70%) | 3 (Herbicidal rate of 40% or more and less than 70%) | 0 (Herbicidal rate of 5% or less (almost no effect)) | 0 (Herbicidal rate of 5% or less (almost no effect)) | 0 (Herbicidal rate of 5% or less (almost no effect)) | 0 (Herbicidal rate of 5% or less (almost no effect)) | 4 (Herbicidal rate of 70% or more and less than 90%) | 0 (Herbicidal rate of 5% or less (almost no effect)) | 5 (Herbicidal rate of 90% or more (almost completely withered)) | – |
| Cc1nn(C)c(=O)c(-c2c(-c3ccc(OCCC(F)(F)F)cc3)sc3ccccc23)c1O [1-206] | 5 (Herbicidal rate of 90% or more (almost completely withered)) | 5 (Herbicidal rate of 90% or more (almost completely withered)) | 5 (Herbicidal rate of 90% or more (almost completely withered)) | 3 (Herbicidal rate of 40% or more and less than 70%) | 5 (Herbicidal rate of 90% or more (almost completely withered)) | 5 (Herbicidal rate of 90% or more (almost completely withered)) | 5 (Herbicidal rate of 90% or more (almost completely withered)) | 5 (Herbicidal rate of 90% or more (almost completely withered)) | 5 (Herbicidal rate of 90% or more (almost completely withered)) | 5 (Herbicidal rate of 90% or more (almost completely withered)) | 3 (Herbicidal rate of 40% or more and less than 70%) | 2 (Herbicidal rate of 20% or more and less than 40%) | 0 (Herbicidal rate of 5% or less (almost no effect)) | 5 (Herbicidal rate of 90% or more (almost completely withered)) | 5 (Herbicidal rate of 90% or more (almost completely withered)) | 5 (Herbicidal rate of 90% or more (almost completely withered)) | – |
| C=C(C)COc1ccc(-c2sc3ccccc3c2-c2c(O)c(C)nn(C)c2=O)cc1 [1-208] | 5 (Herbicidal rate of 90% or more (almost completely withered)) | 4 (Herbicidal rate of 70% or more and less than 90%) | 5 (Herbicidal rate of 90% or more (almost completely withered)) | 0 (Herbicidal rate of 5% or less (almost no effect)) | 5 (Herbicidal rate of 90% or more (almost completely withered)) | 5 (Herbicidal rate of 90% or more (almost completely withered)) | 4 (Herbicidal rate of 70% or more and less than 90%) | 5 (Herbicidal rate of 90% or more (almost completely withered)) | 0 (Herbicidal rate of 5% or less (almost no effect)) | 4 (Herbicidal rate of 70% or more and less than 90%) | 0 (Herbicidal rate of 5% or less (almost no effect)) | 4 (Herbicidal rate of 70% or more and less than 90%) | 0 (Herbicidal rate of 5% or less (almost no effect)) | 5 (Herbicidal rate of 90% or more (almost completely withered)) | 0 (Herbicidal rate of 5% or less (almost no effect)) | 5 (Herbicidal rate of 90% or more (almost completely withered)) | – |
| C=C(Br)COc1ccc(-c2sc3ccccc3c2-c2c(O)c(C)nn(C)c2=O)cc1 [1-215] | 5 (Herbicidal rate of 90% or more (almost completely withered)) | 5 (Herbicidal rate of 90% or more (almost completely withered)) | 3 (Herbicidal rate of 40% or more and less than 70%) | 0 (Herbicidal rate of 5% or less (almost no effect)) | 4 (Herbicidal rate of 70% or more and less than 90%) | 5 (Herbicidal rate of 90% or more (almost completely withered)) | 5 (Herbicidal rate of 90% or more (almost completely withered)) | 4 (Herbicidal rate of 70% or more and less than 90%) | 3 (Herbicidal rate of 40% or more and less than 70%) | 2 (Herbicidal rate of 20% or more and less than 40%) | 0 (Herbicidal rate of 5% or less (almost no effect)) | 3 (Herbicidal rate of 40% or more and less than 70%) | 0 (Herbicidal rate of 5% or less (almost no effect)) | 5 (Herbicidal rate of 90% or more (almost completely withered)) | 0 (Herbicidal rate of 5% or less (almost no effect)) | 5 (Herbicidal rate of 90% or more (almost completely withered)) | – |
| Cc1nn(C)c(=O)c(-c2c(-c3ccc(OCCC4OCCO4)cc3)sc3ccccc23)c1O [1-223] | – | – | – | – | – | – | – | – | – | – | – | – | – | – | – | – | effect on green foxtail (G) ([1]; 246 g/ha): 5 (Herbicidal rate of 90% or more (almost completely withered)); herbicidal effect on E (rice flat sedge), rating 0-5 ([2]; 246 g/ha): 4 (Herbicidal rate of 70% or more and less than 90%); herbicidal effect rating, A: late watergrass ([3]; AAH 246 g/ha): 3 (Herbicidal rate of 40% or more and less than 70%); L: windgrass, herbicidal effect rating ([4]; AAH 246 g/ha): 0 (Herbicidal rate of 5% or less (almost no effect)); Herbicidal effect on B: Japanese bulrush (grade 0-5) ([5]; 246 g/ha applied herbicide): 4 (Herbicidal rate of 70% or more and less than 90%); herbicidal effect on D (Chinese sprangletop), rating 0-5 ([6]; 246 g/ha): 5 (Herbicidal rate of 90% or more (almost completely withered)); effect on windgrass (L) ([7]; 246 g/ha): 4 (Herbicidal rate of 70% or more and less than 90%); Herbicidal effect on C: oval-leafed pondweed (grade 0-5) ([8]; 246 g/ha applied herbicide): 4 (Herbicidal rate of 70% or more and less than 90%); O: lambsquarters, herbicidal effect rating ([9]; AAH 246 g/ha): 3 (Herbicidal rate of 40% or more and less than 70%); effect on blackgrass (J) ([10]; 246 g/ha): 2 (Herbicidal rate of 20% or more and less than 40%); M: velvetleaf, herbicidal effect rating ([11]; AAH 246 g/ha): 0 (Herbicidal rate of 5% or less (almost no effect)); effect on wild oat (I) ([12]; 246 g/ha): 3 (Herbicidal rate of 40% or more and less than 70%); I: wild oat, herbicidal effect rating ([13]; AAH 246 g/ha): 0 (Herbicidal rate of 5% or less (almost no effect)); herbicidal effect on H (barnyard grass), rating 0-5 ([14]; 246 g/ha): 5 (Herbicidal rate of 90% or more (almost completely withered)); H: barnyard grass, herbicidal effect rating ([15]; AAH 246 g/ha): 3 (Herbicidal rate of 40% or more and less than 70%); effect on velvetleaf (M) ([16]; 246 g/ha): 5 (Herbicidal rate of 90% or more (almost completely withered)) |
